In assay [1] the test system is T-type Ca channels (guinea pig atrial cells). Description: whole-cell patch clamp, tail current analysis, modulated receptor theory. It is filed as cell-based, Cavia porcellus. To be noted: read-out: KI, inactivated state (apparent). On the technique in general: Patch clamp records ionic current or voltage across a cell membrane.
Assay [2] relates to T-type Ca channels in GH3 cells. The assay is described as above. To be noted: read-out: KI; inactivated state (apparent); six experiments. It is filed as cell-based, Rattus norvegicus.

Read-outs that look alike come from different tables or passages of the source.

`CC1=C(C(=O)OC(C)C)[C@@H](c2cccc3nonc23)C([N+](=O)[O-])=C(C)N1` [(-)-(R)-202-791]: the Kd in assay [1] (30-s prepulse) worked out at 15.3 nM.
Regarding `CC(C)COCC(CN(Cc1ccccc1)c1ccccc1)N1CCCC1` (stereo not shown) [bepridil], the Kd in assay [1] (from block by 0.5 µM drug) worked out at 1240 nM.
Take `CCOC(=O)C1=C(C)NC(C)=C(C(=O)OC)C1c1cccc(Cl)c1Cl` (stereo not shown) [felodipine]: in assay [2], the Kd came to 680 ± 220 nM.
Take `COC(=O)C1=C(C)NC(C)=C(C(=O)OC(C)C)C1c1cccc2nonc12` (stereo not shown) [isradipine]: in assay [1] (30-s prepulse), the Kd worked out at 20.4 nM.

The record behind these values is article PMC2229105 (The Journal of General Physiology, 1992).
